According to patent publication US11628153B2, “Agent for preventing or amelioriting nocturia” (Kao Corporation, priority 2018, dated 2023):

System: Spontaneously Hypertensive Rats (SHRs)
Assay: Urination behavior recording in metabolic cages after 8 weeks of oral intake of rosmarinic acid-containing feed (urinary frequency, urine volume)
Format: in vivo, rat
Conditions: for Mean urinary frequency of rats during rest period / Mean urine volume of rats during rest period / Mean urinary frequency of rats during activity period / Mean urine volume of rats during activity period: 0.5 mass % rosmarinic acid feed, 8 weeks, mean ± standard error, n=12; for Significant difference in mean urinary frequency, treatment vs control group / Significant difference in mean urine volume, treatment vs control group: Student-t test
Description: For the test, Spontaneously Hypertensive Rats (SHRs, see American Journal of Physiology, 1998, vol. 275, p. R1279-1286 and Neurourology and Urodynamics, 2005, vol. 24, p. 295-300) (42-week-old, female, obtained from Japan SLC) were used. SHRs in the treatment group (n=12) ingested, for 8 weeks, a rosmarinic acid-containing feed (composition: 0.5 mass % rosmarinic acid (obtained from Carbosynth, Inc.), 66 mass % starch, 20 mass % casein, 5 mass % corn oil, 4 mass % cellulose, 3.5 mass % mineral, and 1 mass % vitamin). SHRs in the control group (n=12) ingested, for 8 weeks, a rosmarinic acid-free feed (composition: 66.5 mass % starch, 20 mass % casein, 5 mass % corn oil, 4 mass % cellulose, 3.5 mass % mineral, and 1 mass % vitamin). Then, their urination behavior was recorded in metabolic cages. Note that, before the recording in the metabolic cages, 4-day adaptation period was provided, and they were reared individually. The urination behavior recording (measurement of the urinary frequency and the urine volume) was carried out under conditions with free access to feed and water and under conditions with a 12/12-h light/dark cycle. The urine volume was weighed with an electronic balance while the urine was collected every urination. Note that a past report (see Neurourology and Urodynamics, 2017, vol. 36, p. 1034-1038) was consulted; the start time of a light period corresponding to a rest period of each rat was set to ZT0; the light period was divided into two periods of ZT0-6 and ZT6-12; and the urinary frequency during each period was defined as an indicator for nocturia. In addition, a dark period corresponding to an activity period was divided into two periods of ZT12-18 and ZT18-24; and the urinary frequency during each period was defined as an indicator for daytime frequent urination. […] The results were means±standard errors. To compare the inter-group means, Student-t test was used.

Compound: O=C(/C=C/c1ccc(O)c(O)c1)O[C@H](Cc1ccc(O)c(O)c1)C(=O)O [rosmarinic acid]
- Mean urinary frequency of rats during rest period (ZT0-6 (rest period)): 2.5 ± 0.2 times/6 h
- Mean urine volume of rats during rest period (ZT0-6 (rest period)): 1.7 ± 0.1 mL/6 h
- Significant difference in mean urinary frequency, treatment vs control group (ZT0-6 (rest period)): N.S.
- Significant difference in mean urine volume, treatment vs control group (ZT0-6 (rest period)): N.S.
- Mean urinary frequency of rats during rest period (ZT6-12 (rest period)): 2.4 ± 0.2 times/6 h
- Mean urine volume of rats during rest period (ZT6-12 (rest period)): 1.1 ± 0.1 mL/6 h
- Significant difference in mean urine volume, treatment vs control group (ZT6-12 (rest period)): N.S.
- Mean urinary frequency of rats during activity period (ZT12-18 (activity period)): 6.7 ± 1.1 times/6 h
- Mean urine volume of rats during activity period (ZT12-18 (activity period)): 2.4 ± 0.4 mL/6 h
- Significant difference in mean urinary frequency, treatment vs control group (ZT12-18 (activity period)): N.S.
- Significant difference in mean urine volume, treatment vs control group (ZT12-18 (activity period)): N.S.
- Mean urinary frequency of rats during activity period (ZT18-24 (activity period)): 6.0 ± 0.7 times/6 h
- Mean urine volume of rats during activity period (ZT18-24 (activity period)): 2.4 ± 0.2 mL/6 h
- Significant difference in mean urinary frequency, treatment vs control group (ZT18-24 (activity period)): N.S.
- Significant difference in mean urine volume, treatment vs control group (ZT18-24 (activity period)): N.S.
- Significant difference in the mean urine volume during each time zone, treatment vs control group (all time zones (ZT0-24)): undetected
